For data set [1], the target named is T1, human CerS6 (Homo sapiens, UniProt Q6ZMG9).
T1 construct: host or cells: HEK293
T1 sequence (Q6ZMG9 1-384): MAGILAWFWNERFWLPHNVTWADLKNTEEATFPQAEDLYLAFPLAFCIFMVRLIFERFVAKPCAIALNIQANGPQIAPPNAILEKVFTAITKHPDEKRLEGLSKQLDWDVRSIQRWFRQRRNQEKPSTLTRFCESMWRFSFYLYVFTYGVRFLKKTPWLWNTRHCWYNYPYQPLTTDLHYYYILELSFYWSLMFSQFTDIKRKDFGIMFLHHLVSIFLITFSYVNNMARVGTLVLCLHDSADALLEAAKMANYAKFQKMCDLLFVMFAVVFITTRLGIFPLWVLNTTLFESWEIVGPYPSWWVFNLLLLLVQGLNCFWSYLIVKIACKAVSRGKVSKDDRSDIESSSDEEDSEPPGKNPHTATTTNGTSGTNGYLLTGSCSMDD
The data set is described as follows: Ceramide synthase assay, NBD-dihydrosphingosine, C16:0-CoA; HEK293 cells expressing human CerS6. In kind it is biochemical. To be noted: inhibitor range 10 nM–100 μM; read-out: IC50 hCerS6. As to the method:
(§1) Ceramide synthase assays were carried out using an HPLC-based assay with a fluorescent NBD-dihydrosphingosine substrate. All cell lines used for these assays were originally sourced from ATCC. […] Human CerS expression plasmids (pCMV6 plasmids from Origene) were transfected using FuGene-6 transfection reagent, and cells were harvested 24 h after transfection in 20 mM Hepes pH 7.4, 10 mM KCl, 1 mM dithiothreitol, 3 mM β-glycerophosphate, and EDTA-free complete protease inhibitor cocktail (Roche). Cells were sonicated in a Diagenode Bioruptor sonicating bath for 5 min, after which cell extracts were cleared by centrifugation at 800 × g for 10 min. Protein concentration in the supernatant was assayed using the bicinchoninic acid (BCA) assay, and the supernatant stored at −80 °C. COS cells were infected with lentiviral constructs expressing murine CerS1, 2, or 5, then homogenised as described above.
(§2) The reaction buffer consisted of 20 mM Hepes pH 7.4, 25 mM KCl, 2 mM MgCl2, 0.5 mM dithiothreitol, 0.1% fatty acid free BSA, 10 μM NBD-dihydrosphingosine and 50 μM fatty acid free BSA. C18:0-CoA was used as the fatty acyl substrate for CerS1 and CerS4; C24:1-CoA for CerS2; and C16:0-CoA for CerS5 and CerS6. All reactions were run in triplicate. Test inhibitors were added, after which reactions were started with the addition of 2.5–25 μg lysate protein (optimised depending on the particular CerS isoform being assayed). Assays were run for 30 min at 37 °C, and stopped with the addition of 200 μL methanol. The reaction mixture was transferred to a glass HPLC vial with 300 μL fused glass insert (Thermo Fisher Scientific) and NBD-dihydroceramide reaction products were analysed on a Thermo Scientific Surveyor HPLC connected to a Shimadzu RF-10AXL fluorescent detector (set to gain of 3). […] Data was acquired over a 12 min chromatography run using: solvent A, 0.2% formic acid, 2 mM ammonium formate in water; solvent B, 0.2% formic acid, 1 mM ammonium formate in methanol. The gradient started at 20:80 A/B, increasing to 5:95 A/B over 2 min, then to 100% B over 6 min. The gradient was then held at 100% B for 2 min, before re-equilibration to 20:80 A/B for a further 2 min. Peak areas were integrated using Xcalibur software (Thermo Fisher Scientific).

Data set [2] addresses T2, murine CerS5 (Mus musculus, UniProt Q9D6K9).
T2 construct: expressed in transfected cells; host or cells: COS cells (lentiviral infection)
T2 sequence (Q9D6K9 1-414): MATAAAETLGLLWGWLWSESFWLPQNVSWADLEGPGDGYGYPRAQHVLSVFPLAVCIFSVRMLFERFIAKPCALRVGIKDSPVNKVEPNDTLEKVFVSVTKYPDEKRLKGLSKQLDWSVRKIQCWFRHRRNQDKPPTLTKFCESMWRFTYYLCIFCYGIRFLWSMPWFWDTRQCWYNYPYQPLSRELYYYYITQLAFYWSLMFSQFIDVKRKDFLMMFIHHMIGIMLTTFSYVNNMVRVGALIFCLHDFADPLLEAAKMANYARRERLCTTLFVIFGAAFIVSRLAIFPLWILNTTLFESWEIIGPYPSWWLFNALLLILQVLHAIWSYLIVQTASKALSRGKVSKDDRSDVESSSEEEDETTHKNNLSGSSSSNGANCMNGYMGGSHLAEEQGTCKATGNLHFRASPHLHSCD
The data set is described as follows: Ceramide synthase assay, NBD-dihydrosphingosine, C16:0-CoA; COS cells expressing murine CerS5. It counts as biochemical. To be noted: inhibitor range 10 nM–100 μM; read-out: IC50 mCerS5. The procedure:
as §1, §2

The test system of data set [3] is HEK293 cells. Kind of data set: Detection of the phosphate of the compound in cultured cells, LC-MS/MS. It counts as in vitro ADME. To be noted: 1 µM, 2 h. As to the method:
LC-MS/MS was performed on a TSQ Quantum Access triple quadrupole mass spectrometer in positive ion mode, coupled to an Accela UPLC system (Thermo Scientific). Extracts (20 μL) were separated on a 2 × 100 mm Eclipse XDB-C8 column with 1.8 μm particle size (Agilent Technologies), using a 7.5 min binary HPLC gradient: 0 min, 70% B ([…]); 1.5 min, 70% B; 3.5 min, 95% B; 4 min, 95% B; 4.5 min, 70% B; 7.5 min 70% B. Mobile phase A: 2 mM ammonium formate/1% formic acid in water; mobile phase B: 1 mM ammonium formate/1% formic acid in methanol. The flow rate was 0.4 mL min^−1, increasing to 0.5 mL min^−1 from 5–7 min, and column oven 30 °C. […] Visualisation and quantification of peaks was performed using Thermo Fisher’s XCalibur software v2.2.
Supplementary Figure 8. P053 is not phosphorylated in situ or in vivo. (a-b) HEK293 cells […]
LC-MS/MS analysis. Chromatograms for (a) FTY720 and its phosphate, and (b) P053 and its putative phosphate are shown. […]
mg/kg/day for 6 weeks, corresponding to a plasma concentration of ~300 nM. No peak is […]
(1 picture or pasted object on this page, not shown here)

Each structure is given as a SMILES string. “Also recorded” adds a separate entry of the source.

Regarding `C[C@@](N)(CO)CCc1ccc(OCc2ccccc2)cc1` [G024, (2S)-2-amino-4-(4′-benzyloxyphenyl)-2-methyl-1-butanol], the IC50 (as a rule, the concentration at which inhibition is half-maximal) in data set [1] is 8.5 ± 0.13 µM; in data set [2] it was 24.3 ± 0.22 µM.

Take `C[C@@](N)(CO)CCc1ccc(OCc2ccc(Cl)c(Cl)c2)cc1` [P053, (S)-2-amino-4-(4-(3,4-dichlorobenzyloxy)phenyl)-2-methylbutan-1-ol]: the IC50 in data set [1] came out at 11.4 ± 0.17 µM; in data set [2] it was 7.2 ± 0.1 µM. Besides, the “phosphate of the compound in cultured HEK293 cells” value in data set [3] was “only background signal; also recorded: not detected”.

Regarding `CCCCCCCCc1ccc(CCC(N)(CO)CO)cc1` [FTY720, reference compound], the results for the IC50 in data set [1] and in data set [2] were 5.8 ± 0.2 µM and 15 ± 0.07 µM, respectively. For the same compound, the “phosphate of the compound in cultured HEK293 cells” value in data set [3] was “definitive peak; also recorded: clearly detected”.

With `CCCC[C@@H](C)[C@@H](OC(=O)C[C@@H](CC(=O)O)C(=O)O)[C@H](C[C@@H](C)C[C@H](O)CCCC[C@@H](O)C[C@H](O)[C@H](C)N)OC(=O)C[C@@H](CC(=O)O)C(=O)O` [FB1, reference compound], the IC50 in data set [1] came out at 0.29 ± 0.05 µM; in data set [2], 0.5 ± 0.05 µM.

Source of the values: article PMC6104039 (Nature Communications, 2018).
